In patent publication US10770169B2, “Method of providing a treatment to a subject based on a dynamic pathway map” (THE REGENTS OF THE UNIVERSITY OF CALIFORNIA, priority 2010, dated 2020):
Read-outs that look alike come from different tables or passages of the source.

Test system: panel of 55 breast cancer cell lines
Assay: Cell growth inhibition assay (Cell Titer Glo, 72 h, 9 doses; GI50, TGI, LC50)
Format: cell-based, human
Settings: Homo sapiens, read-out: GI50 (converted)

NS(=O)(=O)OC[C@@H]1C[C@@H](n2ccc3c(N[C@H]4CCc5ccccc54)ncnc32)C[C@@H]1O [MLN4924]
GI50 (AU565, cell line AU565, censored GI50 values): 182 nM
GI50 (AU565, cell line AU565): 182 nM
GI50 (BT-20, cell line BT20, censored GI50 values): 2750 nM
GI50 (BT-20, cell line BT20): 2750 nM
GI50 (BT-474, cell line BT474, censored GI50 values): 575 nM
GI50 (BT-474, cell line BT474): 575 nM
GI50 (BT-483, cell line BT483, censored GI50 values): 33100 nM
GI50 (BT-483, cell line BT483): 33100 nM
GI50 (CAMA-1, cell line CAMA1, censored GI50 values): 51.3 nM
GI50 (CAMA-1, cell line CAMA1): 51.3 nM
GI50 (HCC38, cell line HCC38, censored GI50 values): 27.5 nM
GI50 (HCC38, cell line HCC38): 27.5 nM
GI50 (HCC70, cell line HCC70, censored GI50 values): 33100 nM
GI50 (HCC70, cell line HCC70): 33100 nM
GI50 (HCC1143, cell line HCC1143, censored GI50 values): 245 nM
GI50 (HCC1143, cell line HCC1143): 245 nM
GI50 (HCC1187, cell line HCC1187, censored GI50 values): 501 nM
GI50 (HCC1187, cell line HCC1187): 501 nM
GI50 (HCC1419, cell line HCC1419, censored GI50 values): 22.9 nM
GI50 (HCC1419, cell line HCC1419): 22.9 nM
GI50 (HCC1428, cell line HCC1428, censored GI50 values): 117 nM
GI50 (HCC1428, cell line HCC1428): 117 nM
GI50 (HCC1500, cell line HCC1500, censored GI50 values): 11.7 nM
GI50 (HCC1500, cell line HCC1500): 11.7 nM
GI50 (HCC1806, cell line HCC1806, censored GI50 values): 21.4 nM
GI50 (HCC1806, cell line HCC1806): 21.4 nM
GI50 (HCC1937, cell line HCC1937, censored GI50 values): 2630 nM
GI50 (HCC1937, cell line HCC1937): 2630 nM
GI50 (HCC1954, cell line HCC1954, censored GI50 values): 4470 nM
GI50 (HCC1954, cell line HCC1954): 4470 nM
GI50 (MDA-MB-134-VI, cell line MDAMB134VI, censored GI50 values): 52.5 nM
GI50 (MDA-MB-175-VII, cell line MDAMB175VII, censored GI50 values): 427 nM
GI50 (MDA-MB-415, cell line MDAMB415, censored GI50 values): 74.1 nM
GI50 (MDA-MB-415, cell line MDAMB415): 74.1 nM
GI50 (MDA-MB-436, cell line MDAMB436, censored GI50 values): 269 nM
GI50 (MDA-MB-436, cell line MDAMB436): 269 nM
GI50 (MDA-MB-453, cell line MDAMB453, censored GI50 values): 2190 nM
GI50 (MDA-MB-453, cell line MDAMB453): 2190 nM
GI50 (MDA-MB-468, cell line MDAMB468, censored GI50 values): 204 nM
GI50 (MDA-MB-468, cell line MDAMB468): 204 nM
GI50 (SK-BR-3, cell line SKBR3, censored GI50 values): 151 nM
GI50 (SK-BR-3, cell line SKBR3): 151 nM
GI50 (SUM52PE, cell line SUM52PE, censored GI50 values): 398 nM
GI50 (SUM52PE, cell line SUM52PE): 398 nM
GI50 (SUM149PT, cell line SUM149PT, censored GI50 values): 191 nM
GI50 (SUM149PT, cell line SUM149PT): 191 nM
GI50 (SUM1315MO2, cell line SUM1315MO2, censored GI50 values): 33100 nM
GI50 (SUM-159-PT, cell line SUM159PT, censored GI50 values): 589 nM
GI50 (SUM-159-PT, cell line SUM159PT): 589 nM
GI50 (T47D, cell line T47D, censored GI50 values): 117 nM
GI50 (T47D, cell line T47D): 117 nM
GI50 (UACC-812, cell line UACC812, censored GI50 values): 1000 nM
GI50 (UACC-812, cell line UACC812): 1000 nM
GI50 (ZR-75-1, cell line ZR751, censored GI50 values): 33900 nM
GI50 (ZR-75-1, cell line ZR751): 33900 nM
GI50 (ZR-75B, cell line ZR75B, censored GI50 values): 145 nM
GI50 (ZR-75B, cell line ZR75B): 145 nM
GI50 (cell line 600MPE, censored GI50 values): 372 nM
GI50 (cell line 600MPE): 372 nM
GI50 (cell line HCC2185, censored GI50 values): 372 nM
GI50 (cell line HCC2185): 372 nM
GI50 (cell line HCC3153, censored GI50 values): 229 nM
GI50 (cell line HCC3153): 229 nM
GI50 (cell line LY2, censored GI50 values): 158 nM
GI50 (cell line LY2): 158 nM
GI50 (cell line MDAMB134V): 52.5 nM
GI50 (cell line MDAMB175V): 427 nM
GI50 (cell line SUM1315MO): 33100 nM

CN(Cc1cnc2nc(N)nc(N)c2n1)c1ccc(C(=O)N[C@@H](CCC(=O)O)C(=O)O)cc1 [Methotrexate]
GI50 (600MPE cell line, censored GI50 values): 166000 nM
GI50 (AU565, AU565 cell line, censored GI50 values): 166000 nM
GI50 (AU565, cell line AU565): 166000 nM
GI50 (BT-20, cell line BT20): 331000 nM
GI50 (BT-474, cell line BT474): 331000 nM
GI50 (BT-549, cell line BT549): 331000 nM
GI50 (CAMA-1, CAMA1 cell line, censored GI50 values): 79.4 nM
GI50 (CAMA-1, cell line CAMA1): 79.4 nM
GI50 (HCC38, cell line HCC38): 331000 nM
GI50 (HCC202, cell line HCC202): 20.4 nM
GI50 (HCC1143, HCC1143 cell line, censored GI50 values): 24 nM
GI50 (HCC1143, cell line HCC1143): 24 nM
GI50 (HCC1187, HCC1187 cell line, censored GI50 values): 166000 nM
GI50 (HCC1187, cell line HCC1187): 166000 nM
GI50 (HCC1395, cell line HCC1395): 331000 nM
GI50 (HCC1419, HCC1419 cell line, censored GI50 values): 166000 nM
GI50 (HCC1419, cell line HCC1419): 166000 nM
GI50 (HCC1428, cell line HCC1428): 331000 nM
GI50 (HCC1500, HCC1500 cell line, censored GI50 values): 30.9 nM
GI50 (HCC1500, cell line HCC1500): 30.9 nM
GI50 (HCC1806, HCC1806 cell line, censored GI50 values): 166000 nM
GI50 (HCC1806, cell line HCC1806): 166000 nM
GI50 (HCC1937, cell line HCC1937): 331000 nM
GI50 (HCC1954, HCC1954 cell line, censored GI50 values): 15.5 nM
GI50 (HCC1954, cell line HCC1954): 15.5 nM
GI50 (MCF7, cell line MCF7): 57.5 nM
GI50 (MDA-MB-157, cell line MDAMB157): 166000 nM
GI50 (MDA-MB-231, cell line MDAMB231): 331000 nM
GI50 (MDA-MB-361, cell line MDAMB361): 158 nM
GI50 (MDA-MB-415, cell line MDAMB415): 331000 nM
GI50 (MDA-MB-436, cell line MDAMB436): 20 nM
GI50 (MDA-MB-453, cell line MDAMB453): 331000 nM
GI50 (MDA-MB-468, cell line MDAMB468): 32.4 nM
GI50 (SK-BR-3, cell line SKBR3): 692 nM
GI50 (SUM52PE, cell line SUM52PE): 331000 nM
GI50 (SUM149PT, cell line SUM149PT): 331000 nM
GI50 (SUM185PE, cell line SUM185PE): 331000 nM
GI50 (SUM225CWN, cell line SUM225CWN): 331000 nM
GI50 (SUM-159-PT, cell line SUM159PT): 331000 nM
GI50 (ZR-75-1, cell line ZR751): 66.1 nM
GI50 (ZR-75B, cell line ZR75B): 331000 nM
GI50 (cell line 600MPE): 166000 nM
GI50 (cell line HCC2185): 331000 nM
GI50 (cell line LY2): 33.9 nM
GI50 (cell line MDAMB134V): 331000 nM
GI50 (cell line SUM1315MO): 331000 nM
